Activity calls are given as the source filed them. How the calls were made is not given here.

The nature of this data set: Cytotoxicity activity against human HepG2 cells assessed by CellTiter-Glo luminescent cell viability assay. The format is toxicity, cell-based. More on the design: assay stage confirmatory assay, source tissue liver. The conditions noted are these: HepG2 cells, read-out: IC50 relative.
Consider `CCC(=O)Nc1ccc(C(=O)Cn2ncc(Cl)c(Cl)c2=O)cc1`, for which the CC50 is 3.3 µM (active).
The figure for `COc1ccccc1N1CCN(S(=O)(=O)c2ccc3c4c(cccc24)C(=O)N3)CC1` is 10.8 µM (inactive); for `CN(C)S(=O)(=O)c1cccc(NC(=O)CSc2cccc3cccnc23)c1` it is 3.5 µM (active); for `CNc1nc(N2CCN(C)CC2)nc2ccccc12` it is 5.5 µM (active).
The figure for `Cn1c(=O)oc2cc(S(=O)(=O)Nc3cccc4cccnc34)ccc21` is 16.7 µM (active); for `CC(C)(C)c1n[nH]c2c(-c3nc4ccccc4s3)c(N)nn2c1=O` it is 35.4 µM (inactive).
The figure for `O=C(Cc1ccsc1)Nc1nc(-c2ccccn2)cs1` is 3.2 µM (active).
Turning to `CCOCCCNC(=O)c1nnn(-c2ccc3ncccc3c2)c1C`, the CC50 is 3.1 µM (active).
The figure for `Cc1cn(CC(=O)c2ccc(NC(=O)CC(C)C)cc2)cc(Br)c1=O` is 22.2 µM (inactive); for `c1ccc([C@H](CC2CCC2)NC2CCC3(CC2)OCCO3)cc1` it is 4 µM (active); for `Cc1ccc(Cc2cnc(NC(=O)NC[C@H](C)CN3CCN(C)CC3)s2)cc1` it is 7.6 µM (active).
Take `O=C(Nc1ccccn1)c1cccc(NS(=O)(=O)c2c[nH]c3ncccc23)c1`: the CC50 was 8.6 µM (active).
As for `Cc1cc(C)c(C(N)=O)c(SCC(=O)N(CCC#N)c2ccc3c(c2)OCCO3)n1`, the figure is 4.3 µM (active).
On to `COc1ccc(OC)c(C2CC(c3c(O)[nH]c(=O)n(C4CCCCC4)c3=O)=NN2)c1` (stereo unspecified), for which the CC50 is 5.7 µM (active).
As for `N[C@@H](CNC(=O)COc1ccc(Cl)c2ccccc12)C1CC1`, the figure is 24.9 µM (inactive); as for `C[C@@H]1Oc2ccccc2N(CC(=O)Nc2nc(-c3ccccn3)cs2)C1=O`, 3.3 µM (active).
`N#Cc1ccc(CN2CCN(C(=O)c3ccc(-n4cccn4)cc3)CC2)cc1`: the CC50 is 8.6 µM (active).
The figure for `O=S1(=O)CCCN1c1ccc(CNc2ncnc3ccccc23)cc1F` is 2.2 µM (active).
The figure for `Cc1cc(NC(=O)c2cscn2)ccc1NC(=O)c1ccco1` is 9.1 µM (active); for `COc1ccc(OCCCN2CCN(S(=O)(=O)c3ccc(S(N)(=O)=O)cc3)CC2)cc1` it is 15.9 µM (inactive); for `O[C@@H](CNCc1cc2ccccc2nc1N1CCCCC1)CN1CCCC1` it is 9.8 µM (active).
As for `C[C@H](O)CN1CCC(CNCc2ccc(Br)cc2)CC1`, the figure is 5.3 µM (active); as for `c1ccc2c(c1)sc1ncnc(NC[C@H]3CN(C4CC4)CCO3)c12`, 11.8 µM (active); as for `CCN(Cc1nc2cc(OC)c(OC)cc2c(=O)[nH]1)C(=O)c1ccc2c(c1)OCO2`, 12.7 µM (active).
For `CCCCn1nnnc1Cn1ncc(Cl)c(Cl)c1=O`, the CC50 was 3 µM (active).
As for `COc1ccc(-c2nnc(Cn3ncc(Cl)c(Cl)c3=O)o2)cc1`, the figure is 0.9 µM (active); as for `COCCN1CCCC(CNC2CCN(c3ccccc3Cl)CC2)C1` (stereo unspecified), 5.2 µM (active).
As for `NC(=O)c1cc(NC(=O)CCSc2ccccc2Br)[nH]n1`, the figure is 13.6 µM (active); as for `O=C(Cc1ccc(-n2cccn2)cc1)Nc1nccs1`, 0.6 µM (active).
As for `O=C(Nc1nc(-c2ccccc2)cs1)C1CCN(S(=O)(=O)c2cccnc2)CC1`, the figure is 6 µM (active); as for `COc1ccccc1OCC(=O)Nc1cccc2ncccc12`, 9.3 µM (active); as for `COc1cc(F)cc2sc(NC(=O)c3cc(N4CCOCC4)ccn3)nc12`, 48.8 µM (inactive).
`CCN(c1ccc(C(=O)Nc2ccccc2O)cc1)C(C)C`: the CC50 is 11.9 µM (active).
With `Cc1ccc(NC(=O)Nc2ccc(Cl)cc2)cc1NS(C)(=O)=O`, the CC50 was 3.6 µM (active).
The figure for `Nc1ccnc2ccc(Oc3ccccc3)cc12` is 11.2 µM (active); for `CC(C)n1ncc2cc(NC(=O)c3ccc(=O)n(Cc4ccccc4)n3)cnc21` it is 9.2 µM (active).
The figure for `O=C(Nc1nccs1)c1cccc(S(=O)(=O)N2CCN(c3ccc(F)cc3)CC2)c1` is 3.1 µM (active).
For `CCCn1c(NC(=O)c2cccc(S(=O)(=O)N3CCN(C(C)=O)CC3)c2)nc2ccccc21`, the CC50 was 8.3 µM (active).
The figure for `CC(C)[C@H](NC1CCN(C(=O)c2ccco2)CC1)c1ccccc1` is 10.6 µM (inactive); for `Fc1ccc2[nH]c(CCNc3ncc(Br)cn3)nc2c1` it is 5.1 µM (active); for `O=C1c2ccccc2C(=O)N1Cn1ncc(Cl)c(Cl)c1=O` it is 11.5 µM (active).
As for `CN(C)S(=O)(=O)N1CCN(C(=O)c2cnn(-c3ccc(Cl)cc3)c2C(F)(F)F)CC1`, the figure is 5.2 µM (active); as for `CCCCNc1nc(-c2cc(C)ccn2)cs1`, 6.3 µM (active); as for `Cc1ccc([C@H](CC(=O)c2ccco2)SCCO)cc1`, 11.4 µM (active).
As for `CC(C)Cn1ncc2cc(C(=O)Nc3nc4ccccc4[nH]3)cnc21`, the CC50 is 15.5 µM (inactive).
As for `N#Cc1ccc(NC(=O)c2cccc3ncccc23)cc1`, the figure is 10.8 µM (inactive).
As for `CNc1ccc(Br)cc1N`, the figure is 4.1 µM (active); as for `Cc1cc(C)cc(OCCN(C)[C@@H](C)c2nc(N)nc(N(C)C)n2)c1`, 9 µM (active); as for `CN(C)c1cccc(S(=O)(=O)Nc2ccc3ncccc3c2)c1`, 3.3 µM (active).
As for `COc1ccc(-c2csc3[nH]c(=O)cc(O)c23)cc1`, the figure is 3.7 µM (active); as for `Nc1ccncc1CCC1CCCCC1`, 10.7 µM (active).
As for `O=S(=O)(c1cccs1)N1CCN(C[C@H](O)COc2cc(Cl)ccc2Cl)CC1`, the CC50 is 8.9 µM (active).
The figure for `COc1ccc2[nH]c(NC(=O)[C@@H]3CCCC(=O)N3)cc2c1` is 4.6 µM (active); for `Cn1c(=O)c2c(ncn2CCn2ncc(Cl)c(Cl)c2=O)n(C)c1=O` it is 11.7 µM (active).
The figure for `Cc1nccn1-c1ccc(NC(=O)c2cccc(OC(C)C)n2)cn1` is 6.5 µM (active); for `Cc1csc2nc(CN[C@H](c3ccc(Cl)cc3)C3CC3)cc(=O)n12` it is 2.6 µM (active); for `Cc1nc(-c2ccccc2)oc1C(=O)Nc1ccc(N2CCN(C)CC2)cn1` it is 12.9 µM (active).
As for `Cc1ccc(NC(=O)Cc2ccc(-n3cccn3)cc2)nc1`, the figure is 0.4 µM (active); as for `Cc1cc(C)n(C(=O)Cc2cccs2)n1`, 16 µM (inactive).
Regarding `CCn1cc(CC(=O)Nc2ccc(Oc3ccccc3)cn2)cn1`, the CC50 is 5.3 µM (active).
The figure for `c1ccc(-n2cnc3c(Nc4cnn(C[C@H]5CCCO5)c4)ncnc32)cc1` is 5.8 µM (active).
As for `CCOc1cc2ccccc2cc1C(=O)NCc1ccco1`, the figure is 1.7 µM (active).
The figure for `COc1ccc2cc(C(=O)Nc3ccc4oc(=O)[nH]c4c3)[nH]c2c1` is 32.5 µM (inactive); for `C[C@@H]1NC(C(=O)Nc2ccnc3ccnn23)=NN(c2ccccc2)C1=O` it is 13.2 µM (active); for `CCCN1CCC(NC(=O)c2nn(-c3cccc(Cl)c3)nc2C)CC1` it is 16.3 µM (inactive).
As for `Cc1nn(-c2ccccc2)nc1C(=O)Nc1ccc(S(=O)(=O)NCCCN2CCOCC2)cc1`, the CC50 was 10.3 µM (active).
Regarding `CNC(=O)c1cc(Oc2ccccc2N)ccn1`, the CC50 was 32.7 µM (inactive).
The figure for `O=S(=O)(c1ccc(N2CCN(c3ncnc4c3oc3ccccc34)CC2)nc1)N1CCOCC1` is 3.3 µM (active).
The figure for `Cc1nn(-c2cccc(Cl)c2)nc1C(=O)N(C)C1CCNCC1` is 11.4 µM (active); for `CCn1nc(C)cc1C(=O)Nc1nc2cc(C#N)ccc2n1CC` it is 4 µM (active).
As for `CC(C)(C)NS(=O)(=O)c1ccc(C(=O)Nc2ccc(Oc3cccnc3)nc2)o1`, the figure is 11.8 µM (inactive).
Turning to `O=S(=O)(Nc1ccc(Cl)c2cccnc12)c1c[nH]c2ncccc12`, the CC50 is 5.5 µM (inactive).
As for `Oc1ccc(CN2CCc3ccccc3C2)cc1`, the figure is 3.4 µM (active); as for `CS(=O)(=O)c1ncc(Cl)c(C(=O)Nc2ccc(Cl)cc2)n1`, 4.1 µM (active).
As for `Cc1ccc(NC(=O)c2cccc(F)c2Cl)cc1O`, the figure is 0.7 µM (active).
As for `O=C(NCC(F)(F)CO)c1ccc2noc(-c3ccccc3)c2c1`, the figure is 7.2 µM (active); as for `CC1=NNc2nc3c(c(=O)n(Cc4ccccc4Cl)c(=O)n3C)n2[C@H]1C`, 21.1 µM (inactive); as for `N#Cc1ccc(CN2CCN(C(=O)c3ccc(Cn4cccn4)cc3)CC2)cc1`, 3.9 µM (active).
For `CCc1nc(C)c([C@H](C)N(C)Cc2cccnc2N)s1`, the CC50 was 13.8 µM (active).
The figure for `CC(C)(C)n1ncc(N2CCN(c3ccc(C#N)cc3F)CC2)c(Cl)c1=O` is 22.7 µM (active); for `Clc1ccc(C2=CCNCC2)cc1Cl` it is 10.8 µM (active).
Consider `O=C(Nc1ccnn1-c1ccc(Br)cn1)c1ccccn1`, for which the CC50 was 23.7 µM (inactive).
As for `C[C@H]1CN(CC(=O)Nc2nc3ccc(F)cc3s2)CCN1c1nccn2cnnc12`, the figure is 8 µM (active); as for `CC(C)CN(CCS(=O)(=O)c1ccc(C(C)(C)C)cc1)C1CCN(C)CC1`, 4.4 µM (active).
As for `Cc1nonc1Cn1nc(Cl)c(Cl)cc1=O`, the CC50 is 21.6 µM (inactive).
The figure for `c1ccc2c(c1)OC[C@H](CNc1ncnc3sccc13)O2` is 1.8 µM (active); for `Cc1c(CNCCCN2CCCCC2CO)oc2ccccc12` (stereo unspecified) it is 9.8 µM (active).
As for `CCN(CC)C(=O)CN1CCN(S(=O)(=O)c2ccc3c(c2)CCC3)CC1`, the figure is 50 µM (inactive); as for `CN(c1ccc(-c2csc(NC(=O)CCc3ccco3)n2)cc1)S(C)(=O)=O`, 6 µM (active); as for `COc1ccsc1C(=O)Nc1ncc(Cl)s1`, 2.3 µM (active).
As for `Cc1cc(-c2csc(NC(=O)c3coc(S(=O)(=O)N(C)C)c3)n2)c(C)o1`, the figure is 16.5 µM (inactive).

The record behind these values is ChEMBL document CHEMBL5303711, “ECBD screening data for assay EOS300108” (2023).
